Test results as given in patent US12036237B2, “Bromide source for use in treating autism spectral disorder” (INSERM (INSTITUT NATIONAL DE LA SANTE ET DE LA RECHERCHE …, priority 2016, dated 2024).
“Also recorded” adds a separate entry of the source.

Experiments:
Oprm1−/− mice [1] = assay: Motor stereotypies scoring; conditions: bumetanide 0.5 mg/kg i.p. daily
Oprm1−/− mice [2] = assay: Marble burying test; conditions: bumetanide 0.5 mg/kg i.p. daily
Oprm1−/− mice [3] = assay: Direct social interaction test; conditions: Oprm1−/− mice, bumetanide 0.5 mg/kg i.p. daily vs saline
Oprm1−/− mice [4] = assay: Novelty-suppressed feeding test
[5] = literature statement (Romermann et al, 2017); cited from earlier work
Oprm1−/− mice [6] = assay: Y-maze exploration; conditions: bumetanide 0.5 mg/kg i.p. daily; for rate of same arm returns (cognitive stereotypies): Oprm1−/− mice
Oprm1−/− mice [7] = assay: Three-chamber social novelty preference test; conditions: bumetanide 0.5 mg/kg i.p. daily vs saline

**Q.** For `CCCCNc1cc(C(=O)O)cc(S(N)(=O)=O)c1Oc1ccccc1` [bumetanide, Bumetanide], which circling episodes (Oprm1−/− mice [1]; Oprm1−/− mice) is on record?
**A.** efficiently suppressed

**Q.** What about the “stereotypic behaviour / motor stereotypies (overall)” value (Oprm1−/− mice [1]; Oprm1−/− mice) of the same molecule?
**A.** efficiently relieved stereotypic behaviour

**Q.** What about the stereotypic shakes (Oprm1−/− mice [1]; Oprm1−/− mice) of the same molecule?
**A.** efficiently suppressed

**Q.** And the “stereotypic behaviour / motor stereotypies (overall)” value (Oprm1−/− mice [1]; Oprm1−/− mice, listed as Bumetanide)?
**A.** suppressed motor stereotypies

**Q.** What about the “duration of burying episodes” value (Oprm1−/− mice [1]; all mice) of the same molecule?
**A.** no significant effect

**Q.** And the “number of and time spent in burying episodes” value (Oprm1−/− mice [1]; all mice)?
**A.** increased

**Q.** What about the “number of rearing and grooming episodes” value (Oprm1−/− mice [1]; mutant or wild-type) of the same molecule?
**A.** did not change

**Q.** What about the “number of marbles buried” value (Oprm1−/− mice [2]) of the same molecule?
**A.** did not significantly modify

**Q.** What about the “number of and time spent in grooming episodes” value (Oprm1−/− mice [3]) of the same molecule?
**A.** only effective in reducing the number of grooming episodes

**Q.** And the “number of grooming episodes following a social contact” value (Oprm1−/− mice [3])?
**A.** only effective in reducing the number of grooming episodes

**Q.** What about the “number of nose contacts” value (Oprm1−/− mice [3]) of the same molecule?
**A.** no significant effect

**Q.** And the “number of, time spent in and duration of paw contacts” value (Oprm1−/− mice [3])?
**A.** no significant effect

**Q.** What about the “social interaction (overall)” value (Oprm1−/− mice [3]) of the same molecule?
**A.** only partially restored social interaction

**Q.** What about the “time spent in and duration of nose contacts” value (Oprm1−/− mice [3]) of the same molecule?
**A.** increased, but failed to completely rescue

**Q.** And the “time spent in social contact” value (Oprm1−/− mice [3])?
**A.** increased, but failed to completely rescue

**Q.** What about the “number of and time spent in grooming episodes” value (Oprm1−/− mice [3]; listed as Bumetanide) of the same molecule?
**A.** normalized

**Q.** What about the “number of grooming episodes following a social contact” value (Oprm1−/− mice [3]; listed as Bumetanide) of the same molecule?
**A.** normalized

**Q.** What about the “food intake back in the home cage” value (Oprm1−/− mice [4]; Oprm1 line, bumetanide 0.5 mg/kg i.p. daily) of the same molecule?
**A.** did not modify significantly

**Q.** And the feeding latency (Oprm1−/− mice [4]; Oprm1−/− mice, bumetanide 0.5 mg/kg i.p. daily)?
**A.** did not modify significantly

**Q.** And the “behavioural signs of anxiety (overall)” value (Oprm1−/− mice [4]; Oprm1−/− mice, marble burying and novelty-suppressed feeding, bumetanide 0.5 mg/kg)?
**A.** did not show effects

**Q.** What about the “ability to cross the blood brain barrier” value [5] of the same molecule?
**A.** inability; also recorded: low ability to cross the blood brain barrier

**Q.** And the “rate of same arm returns (cognitive stereotypies)” value (Oprm1−/− mice [6])?
**A.** reduced

**Q.** And the “rate of same arm returns (cognitive stereotypies)” value (Oprm1−/− mice [6]; listed as Bumetanide)?
**A.** reduced cognitive stereotypies; also recorded: similarly reduced

**Q.** And the “rates of spontaneous alternation and alternate arm returns” value (Oprm1−/− mice [6]; all animals)?
**A.** did not modify

**Q.** And the “difference (mouse over toy) in number of nose contacts” value (Oprm1−/− mice [7])?
**A.** restored the difference; also recorded: increased

**Q.** And the “difference (preference for the mouse over the toy) in time spent in compartments” value (Oprm1−/− mice [7])?
**A.** restored the difference; also recorded: successfully restored

**Q.** And the “duration of close contacts with the living mouse” value (Oprm1−/− mice [7])?
**A.** unable to reverse the deficit; also recorded: failed to restore

**Q.** What about the “time spent in close contacts with the living mouse” value (Oprm1−/− mice [7]) of the same molecule?
**A.** unable to reverse the deficit; also recorded: absence of effect
